One substance from patent US10125183B2, “Decoy peptides inhibiting binding of AMIGO2 and 3-phosphoinositide-dependent kinase 1” (Curacle Co., Ltd., priority 2015, dated 2018) can be followed below.

For one assay, the target named is T1, PDK1 PH domain (Homo sapiens, UniProt O15530).
T1 construct: the purified His-tagged PH domain proteins were incubated with Ni^2+-NTA resins; made in house; host or cells: Escherichia coli BL21
T1 sequence (O15530 459-550 limits assumed): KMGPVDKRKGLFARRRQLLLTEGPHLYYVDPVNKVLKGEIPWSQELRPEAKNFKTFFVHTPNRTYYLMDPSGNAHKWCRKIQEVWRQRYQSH
Kind of assay: Decoy peptide binding assay (FITC-PTD-A2 with His-tagged PH domain proteins). The conditions noted are these: FITC-PTD-A2, PH domain proteins 0-60 μg, fluorescence. The protocol: (§1) For the peptide binding assay, the purified His-tagged PH domain proteins were incubated with Ni^2+-NTA resins for 1 h, incubated in vitro with the FITC-PTD-A2 or Con-pep for 1 h, washed five times, eluted with elution buffer. The FITC level of eluted material was then measured using FLUOstar Omega (BGMLABTECH). For the peptide competition assay, the purified His tagged PH domain proteins were incubated with Ni^2+-NTA resins for 1 h, incubated in vitro with the Cytoplasm Domain protein of AMIGO2 proteins with FITC-PTD-A2 or Con-pep for 1 h, washed five times, eluted with elution buffer, and the fluorescence was measured. The FITC level of eluted material was then measured using FLUOstar Omega.

Assay [1] has as its target T2, interaction of the CD of AMIGO2 and PH domain of PDK1 (Homo sapiens, UniProt O15530).
T2 construct: the purified His tagged PH domain proteins were incubated with Ni^2+-NTA resins; made in house; host or cells: Escherichia coli BL21
T2 sequence (O15530 459-550 limits assumed): T1 sequence (O15530 459-550 limits assumed)
The assay can be described thus: Peptide competition assay (GST-AMIGO2 CD versus peptide on His-tagged PDK1 PH). To be noted: His-tagged PDK1 PH with GST-AMIGO2 CD and peptide, dose dependent. The assay is classed as binding. The protocol:
as §1

Assay [2] concerns the target T3, association between AMIGO2 and PDK1 (Homo sapiens, UniProt O15530).
T3 construct: endogenous in cells; host or cells: endothelial cells (HUVECs)
T3 sequence (O15530 1-556): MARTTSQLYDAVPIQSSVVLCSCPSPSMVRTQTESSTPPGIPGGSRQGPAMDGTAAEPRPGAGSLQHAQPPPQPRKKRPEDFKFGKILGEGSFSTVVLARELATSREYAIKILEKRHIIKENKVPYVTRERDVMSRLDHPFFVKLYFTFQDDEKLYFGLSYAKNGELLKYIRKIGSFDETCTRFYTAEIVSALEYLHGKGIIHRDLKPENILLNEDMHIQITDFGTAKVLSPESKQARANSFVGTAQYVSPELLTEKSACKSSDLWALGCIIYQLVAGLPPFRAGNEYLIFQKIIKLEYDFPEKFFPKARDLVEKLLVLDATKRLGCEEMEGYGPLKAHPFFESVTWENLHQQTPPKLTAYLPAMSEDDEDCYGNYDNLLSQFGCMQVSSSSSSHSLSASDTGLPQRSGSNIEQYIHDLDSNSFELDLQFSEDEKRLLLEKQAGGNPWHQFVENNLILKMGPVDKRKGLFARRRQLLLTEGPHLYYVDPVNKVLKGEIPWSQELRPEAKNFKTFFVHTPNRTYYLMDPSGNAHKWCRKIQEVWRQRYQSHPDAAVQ
Kind of assay: Immunoprecipitation of AMIGO2 and blotting for PDK1 in peptide-treated HUVECs. The class given is cell-based. The protocol: For co-immunoprecipitation, HEK293T cells were lysed in 1 mL lysis buffer (20 mmol/L Tris/HCl pH 8.0, 2 mmol/L EDTA, 137 mmol/L NaCl, 1 mmol/L NaVO4, 1 mmol/L PMSF, 10% glycerol, and 1% Triton X-100), and were centrifuged at 14,000×g for 15 min at 4° C., and then the supernatants were immunoprecipitated with antibodies against FLAG (Sigma-Aldrich) and GFP (Santa Cruz Biotechnology) at 4° C. overnight. The immunoprecipitated proteins were obtained by using protein A-agarose beads (Upstate Biotechnology), and detected by SDS-PAGE.
(§2) The PTD-A2 of FITC-linker-YGRKKRRQRRR-GKRVVFLEPLKDTA (SEQ ID NO: 37) (decoy peptide) and the control peptide (FITC-linker-YGRKKRRQRRR-GRVKTDFLAVPEKL (SEQ ID NO: 38)) (Con-pep) were obtained from Peptron. The experiment was performed using 5 μM concentration in vitro, 4 mg/kg was used for an animal experiment. Peptide treated HUVECs were incubated with serum-free M199 medium at 37° C.

Assay [3] has as its system HUVECs. Kind of assay: HUVEC cell viability with or without VEGF. The assay is classed as cell-based, human. To be noted: serum-free starvation with or without VEGF. The protocol:
Endothelial progenitor cells (EPC) were isolated from human umbilical cord blood as previously described (Maeng et al., 2009). Briefly, human umbilical cord blood samples (approximately 50 mL each) were collected from fresh placentas with attached umbilical cords by gravity flow. Human umbilical vein endothelial cells (HUVECs) were isolated from human umbilical cord veins using collagenase as described previously (Marin et al., 2001), and cells from passages three to six were used. HUVECs were cultured on 2% gelatin-coated dishes at 37° C. in a 5% CO2-humidified atmosphere using M199 medium (HyClone) containing 20% fetal bovine serum (FBS), 100 U/mL penicillin, 100 μg/mL streptomycin, 3 ng/mL bFGF (Upstate Biotechnology), and 5 U/mL heparin.
as §2

For the next assay, the system named is PDK1. The assay can be described thus: PDK1 localization in HUVECs after VEGF treatment (immunofluorescence). To be noted: PTD-A2-treated HUVECs. The assay is classed as cell-based, human. The method, then: HUVECs were fixed in 3.7% formaldehyde for 10 min and permeabilized with 0.1% Triton X-100 on the ice. Cells were labeled with anti-FAK antibody (Santa Cruz Biotechnology), anti-PDK1 antibody (Cell Signaling Technology), anti-Akt antibody (Cell Signaling Technology), and anti-AMIGO2 antibody (Abcam) for 2 h at room temperature or overnight at 4° C. Afterwards, the cells were incubated with Alexa 488 and Alexa 546 secondary antibodies (Invitrogen) for 60 min at room temperature, and were then examined under a confocal microscope (LSM 700 META; Carl Zeiss).
as §2

For the next assay, the system named is Akt and PDK1. Kind of assay: VEGF-induced Akt signaling in HUVECs. The assay is classed as cell-based, human. To be noted: PTD-A2-treated HUVECs. The method, then:
as §2

Assay [4] relates to HUVECs. The assay can be described thus: Matrigel-induced tube formation assay. The assay is classed as cell-based, human. The conditions noted are these: PTD-A2 treated ECs. The protocol: The tube formation was assayed as previously described (Choi et al., 2009). Briefly, 250 μL of Matrigel™ (BD Biosciences) was added to a 16-mm diameter tissue culture well on the ice. HUVEC cells then ware placed on that and tube formation was confirmed. The images of the tubes were quantified using ImageJ software (National Institutes of Health).

The subject of another assay is C57BL/6 mice. Kind of assay: Matrigel plug angiogenesis assay. The class given is in vivo, mouse. The conditions noted are these: 25 μM peptide with VEGF 200 ng, subcutaneous, five days. The method, then:
Angiogenesis was evaluated as previously described (Choi et al., 2009). PBS; Matrigel™ (500 μL; BD Biosciences) mixed with PTD-A2 (25 μM), VEGF (200 ng) and heparin (10 U); and Con-pep (25 μM), VEGF (200 ng) and heparin (10 u) were each subcutaneously injected to Five- to six-week-old C57BL/6 mice. Following injection, the Matrigel™ rapidly formed a single, solid gel plug. After five days, the skin of the mouse was pulled back to expose the Matrigel™ plug, which remained intact. To quantify blood vessel formation, hemoglobin was measured using the Drabkin method and the Drabkin reagent kit 525 (Sigma-Aldrich), and immunohistochemistry was performed using anti-CD31 antibody (BD Biosciences) to identify infiltrating ECs.

For another assay, the system named is C57BL/6J mice. The assay can be described thus: Mouse model of oxygen-induced retinopathy (OIR). The class given is in vivo. To be noted: injected every day for five days from P12. The protocol: OIR was induced in C57BL/6J mice as previously described (Connor et al., 2009). Briefly, litters of postnatal day seven (P7) C57BL/6J pups were placed in a 75% oxygen atmosphere for five days and then returned to room air at age P12. After returning to room air, the pups were injected with PBS, Con-pep and PTD-A2 every day for five days. Following the injections, crumps of non-vascular regions, vascular regions and blood vessels were detected with CD31 staining.

A further assay concerns B16F10 melanoma tumors. Kind of assay: B16F10 melanoma tumor model. The assay is classed as in vivo, mouse. To be noted: 4 mg/kg every other day. The method, then: B16F10 melanoma cells (2.5×10^5 cells in 100 μl) were subcutaneously injected into the dorsal flank of 6-7 week-old mice and then PTD-Con or PTD-A2 peptide (4 mg/kg every other day) was administered by intratumoral injection after the tumor volume exceeded 100 mm^3. The size was evaluated every day, tumor samples were frozen sectioned, and stained with anti-CD31 antibody to detect the tumor vascular changes, and then examined the apoptosis bio TUNEL staining. For the TUNEL assay, an in situ cell death detection kit (Roche) was used, and sections were analyzed using a confocal microscope (LSM 700 META; Carl Zeiss).

Take “FITC-linker-YGRKKRRQRRR-GKRVVFLEPLKDTA (SEQ ID NO: 37) [PTD-A2]”: at PDK1 PH domain, the “binding to the PDK1 PH domain” value is on record as “bound”. Moreover, the “interaction of the CD of AMIGO2 and PH domain of PDK1” value in [1] is reported as “inhibited”. Further, in [2], the “association between AMIGO2 and PDK1 in endothelial cells” value was “inhibited”. Also, in the assay on HUVECs [3], the “cell viability of PTD-A2-treated HUVECs” value is “dose and time-dependent inhibitory effect”. Moreover, the “PDK1 localization to the plasma membrane following VEGF treatment” value in the assay on PDK1 is on record as “unable to move to the plasma membrane”. For the same substance, in the assay with Akt and PDK1, the “activity of both Akt and PDK1” value is reported as “reduced”. The Matrigel-induced tube formation result with HUVECs [4] is recorded as “inhibited”. In the assay on C57BL/6 mice, the “hemoglobin contents of Matrigel plugs” value was “lower” and the “neovascularization in Matrigel plugs” value is listed as “dramatic inhibition”. In the assay on C57BL/6J mice, the “avascular areas of retinas” value is given as “increased”, the retinal hemorrhage result is “significantly reduced”, the retinal vascular areas entry was “significantly reduced” and the tuft formation entry is “significantly reduced”. The “apoptotic regions of tumors (TUNEL assay)” value in the assay on B16F10 melanoma tumors (compared to PBS or Con-pep groups) is given as “increased”. The tumor formation result with B16F10 melanoma tumors (intratumoral injection) is “decreased”. Further, in the assay with B16F10 melanoma tumors (intratumoral, CD31 staining), the tumor angiogenesis entry is reported as “decreased”.
